From patent publication US11332564B2, “Method to produce stimuli sensitive UV absorbing polymers” (GALAXY SURFACTANTS LTD, priority 2020, dated 2022)

Legend:
[1] = Photo-degradation study of cream formulations under UV lamp, 200 h; format: physicochemical; settings: Cream Example VII (without copolymer of Example II)
Protocol: Example VII is a cream formulation with OMC and Avobenzone is exposed for 200 h using UV light from a UV lamp.

[2] = commercial UV absorbers; cited from earlier work
[3] = Photo-degradation study of cream formulations under UV lamp, 200 h; format: physicochemical; settings: Cream of Example VIII (10% copolymer of Example II)
[4] = UV absorption (E1%cm, extinction, λmax) by absorption spectrophotometer; format: physicochemical; settings: for E1%cm: at λmax 310 nm
Protocol: (§1) p-Methoxy cinnamido propyl dimethyl amine was obtained from Galaxy Surfactants Ltd., Mumbai. Vinyl benzyl chloride was purchased from Seimi Chemical Co., Ltd. Japan. N, N-Diethyl acrylamide was obtained from Sigma Aldrich, India. N-isoproyl acrylamide was synthesized as per the literature procedure (Polym. J., Vol. 25, No. 6, pp. 561-567). Surface tension was measured on Kruss tensiometer by Wilhelmy plate method. Intrinsic viscosity was measured by Ubbelohde viscometer. NMR spectroscopy was done on 400 MHz Bruker machine. Infrared spectra were recorded on FTIR from Perkin Elmer (Spectrum 100). UV Varian's, Cary 50 absorption spectrophotometer was used for UV absorption data.

[5] = Surface tension, Kruss tensiometer, Wilhelmy plate method; format: physicochemical
Protocol: as §1

Component content, UV exposure 200 h [1] | Component content, Unexposed [1] | Component content, Zero h [1] | Component content, UV exposure 200 h [3] | Component content, Unexposed [3] | Component content, Zero h [3] | E1%cm [4] | E1%cm ([4]; listed as Step (a) of Example I) | Surface tension of 1% aqueous solution [5] | Structure (SMILES) | λmax [2] | molar extinction coefficient ([4]; at 290 nm)
0.1% | 2.0% | 2.0% | 1.5% | 2.0% | 2.0% | – | – | – | COc1ccc(C(=O)CC(=O)c2ccc(C(C)(C)C)cc2)cc1 [Avobenzone] | 360 nm | –
– | – | – | – | – | – | – | – | – | COc1ccc(C=CC(=O)NCCCN(C)C)cc1 [Formula IIa, p-methoxy cinnamidopropyl dimethyl amine] | – | 24,000
– | – | – | – | – | – | 568 | 463 | 42.6 mN/m | C=Cc1ccc(C[N+](C)(C)CCCNC(=O)/C=C/c2ccc(OC)cc2)cc1 [Formula IVa, p-methoxy cinnamido propyl p-vinyl benzyl dimethyl ammonium chloride] | – | –
2% | 6.0% | 6% | 4.5% | 6.0% | 6.0% | – | – | – | CCCCC(CC)COC(=O)C=Cc1ccc(OC)cc1 (stereo not drawn) [OMC, Octyl methoxy cinnamate] | 302 nm | –
